Measured values: patent publication US20050009840A1 (SUGEN, INC., priority 2003, published 2005)
Several values for one entry are separate records, joined by “and”; a condition that tells them apart may be missing. Identical values can stand only once.

Each compound was assayed against T1, Met kinase domain (GST fusion protein) (Homo sapiens, UniProt P08581) (assay: Met transphosphorylation assay (ELISA, poly(glu-tyr) substrate)). Details: read-out: Met IC50.
T1 construct: Purified GST fusion protein containing the Met kinase domain
T1 sequence (P08581 1078-1345 limits assumed): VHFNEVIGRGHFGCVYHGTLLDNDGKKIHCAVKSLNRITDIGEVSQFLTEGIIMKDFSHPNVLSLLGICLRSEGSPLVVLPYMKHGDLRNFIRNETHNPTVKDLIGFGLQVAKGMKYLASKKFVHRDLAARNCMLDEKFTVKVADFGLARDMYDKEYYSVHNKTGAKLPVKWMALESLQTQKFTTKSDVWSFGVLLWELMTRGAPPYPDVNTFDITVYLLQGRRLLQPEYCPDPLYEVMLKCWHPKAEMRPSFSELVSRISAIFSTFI
Format: biochemical
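Also: Cell-free ELISA with plate-bound poly(Glu:Tyr 4:1) phosphorylated by GST-fused Met kinase domain plus ATP and Mn2+, phosphotyrosine detected by anti-phosphotyrosine antibody with HRP and ABTS read-out.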

Point of comparison: `Nc1ncc(-c2ccc(O)cc2)cc1OCc1c(F)cccc1Cl` [Example I-128, 4-[6-Amino-5-(2-chloro-6-fluoro-benzyloxy)-pyridin-3-yl]-phenol], IC50 3.99 µM. Against it:
- Nc1ncc(-c2ccc(C(=O)N3CCC[C@@H]3CN3CCCC3)cc2)cc1OCc1cc(F)ccc1C(F)(F)F [Example I-113, {4-(6-Amino-5-(5-fluoro-2-trifluoromethyl-benzyloxy)pyridin-3-yl]-phenyl}-[(2R)-2-pyrrolidin-1-ylmethyl-pyrrolidin-1-yl]-methanone] — 3.1-fold lower, 1.27 µM
- CC(Oc1cc(-c2ccc(C(=O)N3CCC[C@@H]3CN3CCCC3)cc2)cnc1N)c1ccccc1C(F)(F)F (stereo partly drawn) [Example I-114, (4-{6-Amino-5-[1-(2-trifluoromethyl-phenyl)-ethoxy]-pyridin-3-yl}-phenyl)-[(2R)-2-pyrrolidin-1-ylmethyl-pyrrolidin-1-yl]-methanone] — 12-fold lower, 0.33 µM
- Nc1ncc(-c2ccc(C(=O)N3CCC[C@@H]3CN3CCCC3)cc2)cc1OCc1ccccc1Br [Example I-115, {4-[6-Amino-5-(2-bromo-benzyloxy)-pyridin-3-yl]-phenyl}-[(2R)-2-pyrrolidin-1-ylmethyl-pyrrolidin-1-yl]-methanone] — 2.3-fold lower, 1.75 µM
- Nc1ncc(-c2ccc(C(=O)N3CCC[C@@H]3CN3CCCC3)cc2)cc1OCc1cccc(F)c1C(F)(F)F [Example I-116, {4-(6-Amino-5-(3-fluoro-2-trifluoromethyl-benzyloxy)-pyridin-3-yl]-phenyl}-[(2R)-2-pyrrolidin-1-ylmethyl-pyrrolidin-1-yl]-methanone] — 160-fold lower, 0.025 µM
- Nc1ncc(-c2ccc(O)cc2)cc1OCc1c(F)cccc1F [Example I-118, 4-[6-Amino-5-(2,6-difluoro-benzyloxy)-pyridin-3-yl]-phenyl] — within 1.5-fold, 3.79 µM
- Nc1ncc(-c2cccc3[nH]ccc23)cc1OCc1c(F)cccc1F [Example I-119, 3-(2,6-Difluoro-benzyloxy)-5-(1H-indol-4-yl)-pyridin-2-ylamine] — within 1.5-fold, 5.8 µM
- Nc1ncc(-c2ccc(C(=O)N3CCC[C@@H]3CN3CCCC3)cc2)cc1OCc1c(F)cccc1F [Example I-122] — 3.3-fold lower, 1.21 µM
- Nc1ncc(-c2ccc(C(=O)N3CCC[C@H]3CN3CCCC3)cc2)cc1OCc1c(F)cccc1F [Example I-123, {4-[6-Amino-5-(2,6-difluoro-benzyloxy)-pyridin-3-yl]-phenyl}-[(2S)-2-pyrrolidin-1-ylmethyl-pyrrolidin-1-yl]-methanone] — 2.9-fold lower, 1.36 µM
- Nc1ncc(-c2ccc(OCC(=O)O)cc2)cc1OCc1c(F)cccc1F [Example I-125, {4-[6-Amino-5-(2,6-difluoro-benzyloxy)-pyridin-3-yl]-phenoxy}-acetic acid] — 3.7-fold higher, 14.7 µM
- Nc1ncc(-c2ccc(OCC(=O)N3CCC[C@@H]3CN3CCCC3)cc2)cc1OCc1c(F)cccc1F [Example I-126, 2-{4-[6-Amino-5-(2,6-difluoro-benzyloxy)-pyridin-3-yl]-phenoxy}-1-[(2R)-2-pyrrolidin-1-ylmethyl-pyrrolidin-1-yl]-ethanone] — within 1.5-fold, 3.58 µM
- Nc1ncc(-c2ccc(OCC(=O)N3CCC[C@H]3CN3CCCC3)cc2)cc1OCc1c(F)cccc1F [Example I-127, 2-{4-[6-Amino-5-(2,6-difluoro-benzyloxy)-pyridin-3-yl]-phenoxy}-1-[(2S)-2-pyrrolidin-1-ylmethyl-pyrrolidin-1-yl]-ethanone] — within 1.5-fold, 5.43 µM
- Nc1ncc(-c2ccc(O)cc2)cc1OCc1ccc(F)cc1Cl [Example I-129, 4-[6-Amino-5-(2-chloro-4-fluoro-benzyloxy)-pyridin-3-yl]-phenol] — 4.8-fold higher, 19 µM
- N#Cc1ccccc1COc1cc(-c2ccc(O)cc2)cnc1N [Example I-131, 2-[2-Amino-5-(4-hydroxy-phenyl)-pyridin-3-yloxymethyl]-benzonitrile] — 4.8-fold higher, 19 µM
- Nc1ncc(-c2ccc(O)cc2)cc1OCc1ccccc1C(F)(F)F [Example I-132, 4-[6-Amino-5-(2-trifluoromethyl-benzyloxy)-pyridin-3-yl]-phenol] — within 1.5-fold, 3.67 µM
- Nc1ncc(-c2ccc(O)cc2)cc1OCc1ccccc1Cl [Example I-133, 4-[6-Amino-5-(2-chloro-benzyloxy)-pyridin-3-yl]-phenol] — 3.5-fold higher, 13.8 µM
- CC(C)(C)c1ccc(COc2cc(-c3ccc(O)cc3)cnc2N)cc1 [Example I-134, 4 [6-Amino-5-(4-teert-butyl-benzyloxy)-pyridin-3-yl]-phenol] — within 1.5-fold, 4 µM
- CS(=O)(=O)Nc1ccc(-c2cnc(N)c(OCc3ccccc3C#N)c2)cc1 [Example I-135, N-{4-[6-Amino-5-(2-cyano-benzyloxy)-pyridin-3-yl]-phenyl}-methanesulfonamide] — within 1.5-fold, 4.18 µM
- CS(=O)(=O)Nc1ccc(-c2cnc(N)c(OCc3ccccc3C(N)=O)c2)cc1 [Example I-136, 2-[2-Amino-5-(4-methanesulfonylamino-phenyl)-pyridin-3-yloxymethyl]-benzamide] — higher, > 20 µM
- CS(=O)(=O)Nc1ccc(-c2cnc(N)c(OCc3ccccc3C(=O)O)c2)cc1 [Example I-137, 2-[2-Amino-5-(4-methanesulfonylamino-phenyl)-pyridin-3-yloxymethyl]-benzoic acid] — higher, > 20 µM
- CN1CCN(C(=O)c2ccccc2COc2cc(-c3ccc(NS(C)(=O)=O)cc3)cnc2N)CC1 [Example I-138, N-(4-{6-Amino-5-[2-(4-methyl-piperazine-1-carbonyl)-benzyloxy]-pyridin-3-yl}-phenyl)-methanesulfonamide] — higher, > 20 µM
- CS(=O)(=O)Nc1ccc(-c2cnc(N)c(OCc3ccccc3C(=O)NCCO)c2)cc1 [Example I-139, 2-[2-Amino-5-(4-methanesulfonylamino-phenyl)-pyridin-3-yloxymethyl]-N-(2-hydroxy-ethyl)-benzamide] — higher, > 20 µM
- CC(C)CNC(=O)c1ccccc1COc1cc(-c2ccc(NS(C)(=O)=O)cc2)cnc1N [Example I-140, 2-[2-Amino-5-(4-methanesulfonylamino-phenyl)-pyridin-3-yloxymethyl]-N-isobutyl-benzamide] — higher, > 20 µM
- CN(C)[C@H]1CCN(C(=O)c2ccc(-c3cnc(N)c(OCc4c(F)cccc4Cl)c3)cc2)C1 [Example I-144, {4-[6-Amino-5-(2-chloro-6-fluoro-benzyloxy)-pyridin-3-yl]-phenyl}-[(3S)-3-dimethylamino-pyrrolidin-1-yl]-methanone] — 2.3-fold lower, 1.7 µM
- Nc1ncc(-c2ccc(C(=O)N3CC[C@H](N)C3)cc2)cc1OCc1c(F)cccc1Cl [Example I-145, {4-[6-Amino-5-(2-chloro-6-fluoro-benzyloxy)-pyridin-3-yl]-phenyl}-[(3S)-3-amino-pyrrolidin-1-yl]-methanone] — 6.3-fold lower, 0.63 µM
- CN1CCN(C(=O)c2ccc(-c3cnc(N)c(OCc4c(F)cccc4Cl)c3)cc2)CC1 [Example I-146, {4-[6-Amino-5-(2-chloro-6-fluoro-benzyloxy)-pyridin-3-yl]-phenyl}-(4-methyl-piperazin-1-yl)-methanone] — 2.1-fold lower, 1.94 µM
- CC(=O)N1CCN(C(=O)c2ccc(-c3cnc(N)c(OCc4c(F)cccc4Cl)c3)cc2)CC1 [Example I-147, 1-(4-{4-(6-Amino-5-(2-chloro-6-fluoro-benzyloxy)-pyridin-3-yl]-benzoyl}-piperazin-1-yl)-ethanone] — 2.8-fold lower, 1.45 µM

`Nc1ncc(-c2ccc(O)cc2)cc1OCc1ccc(Cl)cc1Cl` [Example I-130, 4-[6-Amino-5-(2,4-dichloro-benzyloxy)-pyridin-3-yl]-phenol] was tested, and the IC50 was 9 µM and > 20 µM.
